Source: PubChem BioAssay (NCI)
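Compound exposure: 48 hours, 5 concentrations, 96-well plates. Definition used: TGI = concentration required for complete inhibition of growth.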

Key:
Test in all cases: DTP human tumour cell line panel, 48 h
[1] = test system: SK-OV-3 ovarian
[2] = test system: OVCAR-3 ovarian
[3] = test system: PC-3 prostate
[4] = test system: NCI-H23 lung
[5] = test system: A498 renal
[6] = test system: NCI-H522 lung
[7] = test system: HCT-116 colon
[8] = test system: CCRF-CEM leukemia
[9] = test system: UACC-257 melanoma
[10] = test system: MDA-MB-231 breast
[11] = test system: LOX IMVI melanoma
[12] = test system: A549 NSCLC
[13] = test system: SF-539 CNS
[14] = test system: TK-10 renal
[15] = test system: U251 CNS
[16] = test system: SF-295 CNS
[17] = test system: NCI/ADR-RES ovarian
[18] = test system: UO-31 renal
[19] = test system: BT-549 breast
[20] = test system: SN12C renal

| SMILES | TGI [1] [µM] | TGI [2] [µM] | TGI [3] [µM] | TGI [4] [µM] | TGI [5] [µM] | TGI [6] [µM] | TGI [7] [µM] | TGI [8] [µM] | TGI [9] [µM] | TGI [10] [µM] | TGI [11] [µM] | TGI [12] [µM] | TGI [13] [µM] | TGI [14] [µM] | TGI [15] [µM] | TGI [16] [µM] | TGI [17] [µM] | TGI [18] [µM] | TGI [19] [µM] | TGI [20] [µM] |
| --- | --- | --- | --- | --- | --- | --- | --- | --- | --- | --- | --- | --- | --- | --- | --- | --- | --- | --- | --- | --- |
| O=C1NCN(c2ccccc2)C12CCN(CCCN1CCN(CCOC(c3ccccc3)c3ccccc3)CC1)CC2 | 7.12 | 6.93 | 7.69 | 7.46 | 6.55 | 4.66 | 5.67 | 3.59 | 2.7 | 7.25 | 6.18 | 7.82 | 2.48 | 7.15 | 7.45 | 6.41 | 8.91 | 4.39 | 7.37 | 7.14 |
| CC1(C)C(CBr)=[N+]([O-])C(C)(C)N1O | > 10 | > 6.74 | > 10 | > 10 | > 10 | 3.22 | 5.27 | 4.49 | > 10 | > 10 | > 10 | > 10 | > 7.83 | > 10 | > 10 | > 10 | > 10 | > 10 | 5.43 | 9.93 |
| NS(=O)(=O)c1ccc(N=Nc2ccc(O)cc2)cc1 | > 100 | > 100 | > 100 | > 100 | > 100 | > 100 | > 100 | > 100 | > 100 | > 100 | > 100 | > 100 | > 100 | > 100 | > 100 | > 100 | > 100 | > 100 | 62.5 | > 100 |
| Cc1ccc(C(=O)C2C=C(c3ccc(C)cc3)SC3C=CCC32)cc1 (stereo not given) | 54.3 | 31.8 | 39.4 | 53 | 58.4 | 29.6 | 27.8 | 38.3 | 54.3 | 43.8 | 39.5 | 57.1 | 32.2 | 53.3 | 32.5 | 39.9 | 40.8 | 29.6 | 37.3 | 33.1 |
| CC12CP(=O)(O)CC1C2(Cl)Cl (stereo not given) | > 100 | > 100 | > 100 | > 100 | > 100 | > 100 | > 100 | > 100 | > 100 | > 100 | > 100 | > 100 | > 100 | > 100 | > 100 | > 100 | > 100 | > 100 | > 100 | > 100 |
